In patent US20100152188A1, “Novel Heterocyclic Compounds” (priority 2005, published 2010):

Key:
HDAC = HDAC inhibition; type: biochemical; conditions: for HDAC Inhibition 1 μM: compound at 1 μM; for HDAC Inhibition 10 μM: compound at 10 μM
[1] = test system: NCIH460, HCT116, MDAMB-231/U 251; test: Anti-cancer screen, mean GI50 over the cell lines; type: cell-based; conditions: in µM
Method: (§1) Experimental drugs are screened for anti-cancer activity in three cell lines for their GI50, TGI and LC50 values (using five concentrations for each compound). The cell lines are maintained in DMEM containing 10% fetal bovine serum. 96 well micro titer plates are inoculated with cells in 100 µL for 24 hours at 37° C., 5% CO2, 95% air and 100% relative humidity. 5000 HCT 116 cells/well, 5000 NCIH 460 cells/well and 5000 U251 cells/well are plated. A separate plate with these cell lines is also inoculated to determine cell viability before the addition of the compounds (T0).
(§2) Following 24-hour incubation, experimental drugs are added to the 96 well plates. Each plate contains one of the above cell lines and the following in triplicate: five different concentrations (0.01, 0.1, 1, 10 and 100 µM) of four different compounds, appropriate dilutions of a cytotoxic standard and control (untreated) wells. Compounds are dissolved in DMSO to make 20 mM stock solutions on the day of drug addition and frozen at −20° C. Serial dilutions of these 20 mM stock solutions are made in complete growth medium such that 100 µL of these drug solutions in medium, of final concentrations equaling 0.01, 0.1, 1, 10 and 100 µM can be added to the cells in triplicate. Standard drugs whose anti-cancer activity has been well documented and which are regularly used are doxorubicin and SAHA.
(§3) For T0 measurement, 24 hours after seeding the cells, 10 µL of 3-(4,5-Dimethyl-2-thiazolyl)-2,5-diphenyl-2H-tetrazolium (MTT) solution per well is added and incubation carried out for 3 hours at 37° C., 5% CO2, 95% air and 100% relative humidity, protected from light. Cells incubated with compounds for 48 hours are treated similarly except with the addition of 20 µl MTT solution per well and a subsequent incubation under the same conditions. After 3 hours of MTT incubation, well contents are aspirated carefully followed by addition of 150 µL DMSO per well. Plates are agitated to ensure solution of the formazan crystals in DMSO and absorbance read at 570 nm.
(§4) Percent growth is calculated for each compound's concentration relative to the control and zero measurement wells (T0; viability right before compound addition). If a test well's O.D. value is greater than the T0 measurement for that cell line

NCIH460 = test: Anti-cancer screen (MTT), NCIH460; type: cell-based; conditions: Homo sapiens, NCI-H460, 48 hours with compound, tested at 0.01-100 µM
Method: as §1, §2, §3, §4
(§5) %Growth=(test−zero)/(control−zero)×100
(§6) If a test well's O.D. value is lower than the T0 measurement for that cell line, then,
(§7) %Growth=(test−zero)/zero×100

MDAMB-231/U 251 = test: Anti-cancer screen (MTT), MDAMB-231/U 251; type: cell-based; conditions: for CC50: 48 h, read-out: MDAMB-231/U 251 LC50; for GI50 / IC (TGI): 48 hours with compound, MTT, tested at 0.01-100 µM
Method: as §1, §2, §3, §4, §5, §6, §7

HCT116 = test: Anti-cancer screen (MTT), HCT116; type: cell-based; conditions: Homo sapiens, HCT-116, 48 hours with compound, tested at 0.01-100 µM
Method: as §1, §2, §3, §4, §5, §6, §7

SMILES | HDAC Inhibition 1 μM (HDAC) | HDAC Inhibition 10 μM (HDAC) | Mean GI50 [1] | GI50 (NCIH460) | IC (TGI) (NCIH460) | LC50 (NCIH460) | CC50 (MDAMB-231/U 251) | GI50 (MDAMB-231/U 251) | IC (TGI) (MDAMB-231/U 251) | GI50 (HCT116) | IC (TGI) (HCT116) | LC50 (concentration giving 50% net cell kill relative to T0) (HCT116)
O=C(NCc1ccc(C(=O)NOCc2ccccc2)cc1)OCc1cccs1 [Example 73, 2-Thienylmethyl(4-{[(benzyloxy)amino]carbonyl}benzyl)carbamate] | 6.60 | 12.42 | >100 | – | – | – | – | – | – | – | – | –
N#Cc1ccc(NC(=O)Nc2cccc(NC(=O)c3ccc(CNC(=O)OCc4cccs4)cc3)c2)cc1 [Example 105, 2-Thienylmethyl[4-({[3-({[(4-cyanophenyl)amino]carbonyl}amino)phenyl]amino}carbonyl)benzyl]carbamate] | 11.02 | 12.74 | 6.73 | – | – | – | – | – | – | – | – | –
O=C(CCCCCNC(=O)Cc1csc(NC(=O)OCc2ccncc2)n1)NO [Example 98, Pyridin-4-ylmethyl[4-(2-{[6-(hydroxyamino)-6-oxohexyl]amino}-2-oxoethyl)-1,3-thiazol-2-yl]carbamate] | 94.01 | 129.59 | >100 | – | – | – | – | – | – | – | – | –
O=C(NCc1ccc(C(=O)Nc2ncc([N+](=O)[O-])s2)cc1)OCc1cccs1 [Example 69, 2-thienylmethyl(4-{[(5-nitro-1,3-thiazol-2yl)amino]carbonyl}benzyl)carbamate] | 13.14 | 12.38 | 40.33 | – | – | – | – | – | – | – | – | –
Nc1ccccc1NC(=O)Cc1csc(NC(=O)OCc2c(F)c(F)c(F)c(F)c2F)n1 [Example 22, Pentafluorobenzyl(4-{2-[(2-aminophenyl)amino]-2-oxoethyl}-1,3-thiazol-2-yl)carbamate] | – | – | 37 | 48 µM | > 100 µM | > 100 µM | > 100 µM | 10 µM | > 100 µM | 53 µM | > 100 µM | > 100 µM
O=C(NCc1ccc(C(=O)NO)cc1)OCCSc1nc2ccccc2s1 [Example 39, 2-(1,3-Benzothiazol-2-ylthio)ethyl{4-[(hydroxyamino)carbonyl]benzyl}carbamate] | – | – | 7.3 | 16 µM | 54 µM | 82 µM | 65 µM | 0.4 µM | 5 µM | 5.5 µM | 10 µM | 62 µM
COC(=O)ON(C)C(=O)c1ccc(CNC(=O)OCc2cccs2)cc1 [Example 85, 2-Thienylmethyl[4-({[(methoxycarbonyl)oxy](methyl)amino}carbonyl)benzyl]carbamate] | 3.18 | 7.89 | 10.67 | – | – | – | – | – | – | – | – | –
O=C(NCc1ccc(C(=O)Nc2nnc(C3CC3)s2)cc1)OCc1c(F)c(F)c(F)c(F)c1F [Example 56, Pentafluorobenzyl(4-{[(5-cyclopropyl-1,3,4-thiadiazol-2-yl)amino]carbonyl}benzyl)carbamate] | – | – | 0.5 | 0.3 µM | 0.8 µM | > 100 µM | 65 µM | 0.8 µM | 7 µM | 0.5 µM | > 100 µM | > 100 µM
O=C(CCCCCNC(=O)Cc1csc(NC(=O)OCc2c(F)c(F)c(F)c(F)c2F)n1)NO [Example 94, Pentafluorobenzyl[4-(2-{[6-(hydroxyamino)-6-oxohexyl]amino}-2-oxoethyl)-1,3-thiazol-2-yl]carbamate] | – | – | 25.66 | 35 µM | 67 µM | > 100 µM | 84 µM | 19 µM | 50 µM | 23 µM | 62 µM | 84 µM
COC(=O)N(OCc1ccccc1)C(=O)c1ccc(CNC(=O)OCc2cccs2)cc1 [Example 86, 2-Thienylmethyl[4-({(N-benzyloxy)(N-methoxycarbonyl)amino}carbonyl)benzyl]carbamate] | 5.98 | −10.22 | >100 | – | – | – | – | – | – | – | – | –
O=C(Cc1csc(NC(=O)OCc2cccnc2)n1)Nc1nc2ccccc2s1 [Example 11, Pyridin-3-ylmethyl{4-[2-(1,3-benzothiazol-2-ylamino)-2-oxoethyl]-1,3-thiazol-2-yl}carbamate] | – | – | 6 | 7 µM | > 100 µM | > 100 µM | > 100 µM | 5 µM | 10 µM | > 100 µM | > 100 µM | > 100 µM
O=C(CCCNC(=O)Cc1csc(NC(=O)OCc2cccnc2)n1)NO [Example 88, Pyridin-3-ylmethyl[4-(2-{[4-(hydroxyamino)-4-oxobutyl]amino}-2-oxoethyl)-1,3-thiazol-2-yl]carbamate] | – | – | >100 | > 100 µM | > 100 µM | > 100 µM | > 100 µM | 6 µM | > 100 µM | > 100 µM | > 100 µM | > 100 µM
CN(C)C(=O)Cc1csc(NC(=O)OCc2cccnc2)n1 [Example 16, Pyridin-3-ylmethyl{4-[2-(dimethylamino)-2-oxoethyl]-1,3-thiazol-2-yl}carbamate] | – | – | 14 | 8 µM | > 100 µM | > 100 µM | > 100 µM | 20 µM | > 100 µM | > 100 µM | > 100 µM | > 100 µM
O=C(NCc1ccc(C(=O)NO)cc1)OCc1c(F)c(F)c(F)c(F)c1F [Example 29, Pentafluorobenzyl{4-[(hydroxyamino)carbonyl]benzyl}carbamate] | – | – | 1.5 | 0.4 µM | 22.5 µM | 82.5 µM | > 100 µM | 3.1 µM | > 100 µM | 0.98 µM | 3.5 µM | 48 µM
O=C(CCCCCNC(=O)c1ccc(CNC(=O)OCc2cccs2)cc1)Nc1nnc(C2CC2)s1 [Example 103] | – | – | 33.5 | 60 µM | > 100 µM | > 100 µM | 85 µM | 0.4 µM | 18 µM | 40 µM | > 100 µM | > 100 µM
O=C(NCc1ccc(C(=O)NCCO)cc1)OCc1cccs1 [Example 61, 2-Thienylmethyl(4-{[(2-hydroxyethyl)amino]carbonyl}benzyl)carbamate] | – | – | >100 | > 100 µM | > 100 µM | > 100 µM | > 100 µM | 65 µM | > 100 µM | > 100 µM | > 100 µM | > 100 µM
CNC(=O)Cc1csc(NC(=O)OCc2cccnc2)n1 [Example 15, Pyridin-3-ylmethyl{4-[2-(methylamino)-2-oxoethyl]-1,3-thiazol-2-yl}carbamate] | – | – | 73.3 | 60 µM | > 100 µM | > 100 µM | > 100 µM | 60 µM | > 100 µM | 100 µM | > 100 µM | > 100 µM
COc1cc(COC(=O)NCc2ccc(C(=O)NO)cc2)cc(OC)c1OC [Example 36, 3,4,5-Trimethoxybenzyl{4-[(hydroxyamino)carbonyl]benzyl}carbamate] | – | – | 36.2 | 68 µM | > 100 µM | > 100 µM | 85 µM | 5.5 µM | 10 µM | 35 µM | 60 µM | 85 µM
